What all share (type): cell-based
The subject of one assay is multipotent cells (MSCs). The experiment in a line: Growth curves of multipotent cells (MSCs). The note with it: LN-521 under hypoxia versus standard conditions (plastic under normoxia). The text has this: Cells can be grown under hypoxic conditions using a variety of methods. Normally, hypoxic conditions for cell culturing are defined as culturing of cells in an atmosphere containing 5% or less of oxygen.

Assay [1] has as its system embryonic rat cardiac mesenchymal stem cells and rat bone marrow. The experiment in a line: Derivation of Isl1+ cells from rat mesenchymal stem cells on laminins in Wnt-medium (Isl1 immunostaining). The note with it: on LN-521 in combination with hypoxia, two weeks in culture (5 passages). The text has this: In order to further improve feeder free culturing systems where the origin and expansion of multipotent cells could be followed, the inventors synthesized a plasmid construct comprising parts of the Isl1-promotor region linked to the fluorescent marker green fluorescent protein (GFP). The plasmid was introduced into the cells by means of electroporation. Mesenchymal cells (i) derived from rat embryonic hearts, (ii) obtained from rat bone marrow, (iii) obtained from the bone marrow of young healthy donors, (iv) obtained from human cord blood and other types of perinatal tissue, (v) isolated from human amniotic sources, (v) isolated from human adult cardiac tissue were labeled with the Isl1 gene construct concomitant to the addition of Wnt-containing medium (100 ng/ml Wnt-3a and […] BIO). […] In culture the cells grew to confluency and were passaged every other day. At each passage, cells were analysed immunohistochemically for the expression of Isl1.
For each experiment 10 pregnant sprague-dawley rats (gestational day, GD, 13 to 14) were used. The rats were euthanized in a CO2 chamber after which the whole embryos (approximately 10 embryos/rat) were removed through a low midline abdominal incision. From each embryo the heart was removed under microscope, minced into small pieces and rinsed repetitively with Hank's buffered salt solution (HBSS) (GibcoBRL, NY, USA). […]

In the next assay the test system is Isl1 cells. Briefly: qRT-PCR of multipotency and differentiation markers in cells grown under various conditions. The note with it: LN-521 under hypoxia versus LN-521 normoxia, plastic hypoxia.

From patent US20190112578A1, “Derivation and Self-Renewal of Multipotent Cells and Uses Thereof” (IsletOne AB, priority 2016, published 2019) come the findings set out here.

“LN-521: laminin heterotrimeric glycoprotein comprising an α5 chain, coated on cell culture plastic”: in the assay on multipotent cells (MSCs), the “proliferation (growth curve)” value is “significantly faster”. The “cells expressing Isl1” value in assay [1] was 80±15%. Further, in the assay on Isl1 cells, the “Isl1, KDR and Nkx_2_5 mRNA transcripts” value was “significantly higher”; the “Troponin T2 transcripts” value is “lower”.
